The text below walks through data of patent publication US8361964B2, “Growth hormone releasing factor (GRF) analogs and uses thereof” (Theratechnologies Inc., priority 2011, dated 2013).

In experiment [1] the test system is Growth Hormone secretion. Briefly: Growth Hormone secretion in female mice after subcutaneous GRF analog. The class given is in vivo. Conditions: female CD-1 mice; 10 μg/mouse subcutaneous; plasma 10 minutes after injection. The text has this: CD-1 mice (female, weighting from 20 to 25 g) were obtained from Charles River Inc. Animals were used according to a protocol of the Animal Care Committee along with the principles of the Guide for the Care and Use of Experimental Animals of the Canadian Council on Animal Care. The animals were maintained on standard laboratory chow under a 12:12 light:dark cycle. They were kept in groups of 4 mice per cage.
At the day of the experiment, mice received a subcutaneous injection of GRF analog (10 μg/mouse dissolved in 20 mM sodium acetate (AcONa)+5% mannitol at pH 5). 10 minutes after injection, the mice were anesthezied with isolufrane. Blood samples (500 μl) were obtained by intra-cardiac puncture. Blood was placed into microtainer pre-treated with K3EDTA and immediately centrifuged at 13,000 RPM in a desktop centrifuge for 2 minutes. The plasma was collected and placed into a screwcap Eppendorf™ tube and quick frozen in liquid nitrogen. The samples were then kept at −80° C. until assayed. Determination of GH levels was performed as described below.
(§1) Rat and mouse plasma samples were vortexed carefully and centrifuged at 9,000 RPM for 2 min at 4° C. The dosage of GH levels was performed using the Rat/Mouse Growth Hormone ELISA kit from Millipore (Cat. # EZRMGH-45K). Sample supernatants were first diluted 20-fold with the GH ELISA assay buffer, and 10 μl of this dilution was added to the ELISA plate with 90 μl of GH EIA assay buffer. The remaining of the procedure was performed according to the manufacturer's instructions, and the data obtained were analyzed using GraphPad Prism™ software.
(§2) The GRF analogs described herein were tested for their ability to induce GH release in female mice and rats. […] The data are presented in Tables III (mice) and IV-V (rats).

Experiment [2] concerns Growth Hormone secretion. Briefly: Growth Hormone secretion in female rats after subcutaneous GRF analog. The class given is in vivo. Conditions: female Sprague-Dawley rats; 10 μg/rat subcutaneous; plasma 0-60 minutes.
From the text: Sprague-Dawley rats (female, weighting from 250 to 300 g) were obtained from Charles River Inc. Animals were used according to a protocol of the Animal Care Committee along with the principles of the Guide for the Care and Use of Experimental Animals of the Canadian Council on Animal Care. The animals were maintained on standard laboratory chow under a 12:12 light:dark cycle. They were kept in groups of 4 rats per cage.
The animals were anesthetized with isoflurane 2.5%. A mid-section opening was made in the neck to expose the carotid artery. The carotid artery was canulated with polypropylene tubing (PE-50) to allow blood withdrawal. After surgical preparation, rats received a subcutaneous injection of GRF analog (10 μg/rat dissolved in 20 mM AcONa+5% mannitol at pH 5). For pharmacodynamics studies, blood samples (400 μL) were collected from 4 to 8 animals per group per time point. Blood samples (400 μl) were collected via the carotid catheter at 0, 10, 20, 30, 45 and 60 minutes after drug injection. Blood was placed into microtainer pre-treated with K3EDTA and immediately centrifuged at 13,000 RPM in a desktop centrifuge for 2 minutes. The plasma was collected and placed into a screw cap Eppendorf™ and quick frozen in liquid nitrogen. The samples were then kept at −80° C. until assayed. Determination of GH levels was performed as described below.
as §1, §2

Where a SMILES comes first, the peptide text is derived from it.

For `CC/C=C/CC(=O)N[C@@H](Cc1ccc(O)cc1)C(=O)N[C@@H](C)C(=O)N[C@@H](CC(=O)O)C(=O)N[C@@H](C)C(=O)N[C@H](C(=O)N[C@@H](Cc1ccccc1)C(=O)N[C@H](C(=O)N[C@@H](CC(=O)O)C(=O)N[C@@H](CO)C(=O)N[C@@H](Cc1ccc(O)cc1)C(=O)N[C@@H](CCCNC(=N)N)C(=O)N[C@@H](CCCCN)C(=O)N[C@H](C(=O)N[C@@H](CC(C)C)C(=O)N[C@@H](C)C(=O)N[C@@H](CCC(N)=O)C(=O)N[C@@H](CC(C)C)C(=O)N[C@@H](CCCCN)C(=O)N[C@@H](C)C(=O)N[C@@H](CCCNC(=N)N)C(=O)N[C@@H](CCC(N)=O)C(=O)N[C@@H](CC(=O)O)C(=O)N[C@H](C(=O)N[C@@H](CC(C)C)C(=O)N[C@@H](C)C(=O)N[C@@H](CCCNC(=N)N)C(N)=O)[C@@H](C)CC)C(C)C)[C@@H](C)O)[C@@H](C)CC` [SEQ ID NO: 20, Trans-3-hexenoyl-YADAIFTDSYRKVLAQLKARQDILAR-NH2] (HELM PEPTIDE1{[CC/C=C/CC(=O)[*:2]].Y.A.D.A.I.F.T.D.S.Y.R.K.V.L.A.Q.L.K.A.R.Q.D.I.L.A.R.[am]}$$$$V2.0), the “GH levels 10 min” value in experiment [1] worked out at 307.7 ng/mL. Also, in experiment [2], the “Mean AUC (GH Area Under the curve, GH concentration over time)” value came to 966 and the “Mean Cmax (ng/ml) of Growth Hormone secretion” value amounted to 31.7 ng/mL.
The like results for `CC[C@H](C)[C@H](NC(=O)[C@H](C)NC(=O)[C@H](CC(=O)O)NC(=O)[C@@H](C)NC(=O)[C@@H](N)Cc1ccc(O)cc1)C(=O)N[C@@H](Cc1ccccc1)C(=O)N[C@H](C(=O)N[C@@H](CC(=O)O)C(=O)N[C@@H](CO)C(=O)N[C@@H](Cc1ccc(O)cc1)C(=O)N[C@@H](CCCNC(=N)N)C(=O)N[C@@H](CCCCN)C(=O)N[C@H](C(=O)N[C@@H](CC(C)C)C(=O)N[C@@H](C)C(=O)N[C@@H](CCC(N)=O)C(=O)N[C@@H](CC(C)C)C(=O)N[C@@H](CCCCN)C(=O)N[C@@H](C)C(=O)N[C@@H](CCCNC(=N)N)C(=O)N[C@@H](CCC(N)=O)C(=O)N[C@@H](CC(=O)O)C(=O)N[C@H](C(=O)N[C@@H](CC(C)C)C(=O)N[C@@H](CO)C(=O)N[C@H](CCCNC(=N)N)C(N)=O)[C@@H](C)CC)C(C)C)[C@@H](C)O` [SEQ ID NO: 21, Y-a-DAIFTDSYRKVLAQLKARQDILS-r-NH2] (HELM PEPTIDE1{Y.[dA].D.A.I.F.T.D.S.Y.R.K.V.L.A.Q.L.K.A.R.Q.D.I.L.S.[dR].[am]}$$$$V2.0) were, in that order, 104.4 ng/mL, 3130 and 135.9 ng/mL.
With `CC[C@H](C)[C@H](NC(=O)[C@H](C)NC(=O)[C@H](CC(=O)O)NC(=O)[C@@H](C)NC(=O)[C@@H](N)Cc1ccc(O)cc1)C(=O)N[C@@H](Cc1ccccc1)C(=O)N[C@H](C(=O)N[C@@H](CC(=O)O)C(=O)N[C@@H](CO)C(=O)N[C@@H](Cc1ccc(O)cc1)C(=O)N[C@@H](CCCNC(=N)N)C(=O)N[C@@H](CCCCN)C(=O)N[C@H](C(=O)N[C@@H](CC(C)C)C(=O)N[C@@H](C)C(=O)N[C@@H](CCC(N)=O)C(=O)N[C@@H](CC(C)C)C(=O)N[C@@H](CCCCN)C(=O)N[C@@H](C)C(=O)N[C@@H](CCCNC(=N)N)C(=O)N[C@@H](CCC(N)=O)C(=O)N[C@@H](CC(=O)O)C(=O)N[C@H](C(=O)N[C@@H](CC(C)C)C(=O)NC(C)(C)C(=O)N[C@@H](CCCNC(=N)N)C(N)=O)[C@@H](C)CC)C(C)C)[C@@H](C)O` [SEQ ID NO: 22, Y-a-DAIFTDSYRKVLAQLKARQDIL-aib-R-NH2] (HELM PEPTIDE1{Y.[dA].D.A.I.F.T.D.S.Y.R.K.V.L.A.Q.L.K.A.R.Q.D.I.L.[Aib].R.[am]}$$$$V2.0), the “GH levels 10 min” value in experiment [1] worked out at 249.1 ng/mL.
As to `CC[C@H](C)[C@H](NC(=O)[C@H](C)NC(=O)[C@H](CC(=O)O)NC(=O)[C@@H](C)NC(=O)[C@@H](N)Cc1ccc(O)cc1)C(=O)N[C@@H](Cc1ccccc1)C(=O)N[C@H](C(=O)N[C@@H](CC(=O)O)C(=O)N[C@@H](CO)C(=O)N[C@@H](Cc1ccc(O)cc1)C(=O)N[C@@H](CCCNC(=N)N)C(=O)N[C@@H](CCCCN)C(=O)N[C@H](C(=O)N[C@@H](CC(C)C)C(=O)N[C@@H](C)C(=O)N[C@@H](CCC(N)=O)C(=O)N[C@@H](CC(C)C)C(=O)N[C@@H](CCCN)C(=O)N[C@@H](C)C(=O)N[C@@H](CCCNC(=N)N)C(=O)N[C@@H](CCC(N)=O)C(=O)N[C@@H](CC(=O)O)C(=O)N[C@H](C(=O)N[C@@H](CC(C)C)C(=O)N[C@@H](CO)C(=O)N[C@H](CCCNC(=N)N)C(N)=O)[C@@H](C)CC)C(C)C)[C@@H](C)O` [SEQ ID NO: 23, Y-a-D-A-I-F-T-D-S-Y-R-K-V-L-A-Q-L-O-A-R-Q-D-I-L-S-r-NH2] (HELM PEPTIDE1{Y.[dA].D.A.I.F.T.D.S.Y.R.K.V.L.A.Q.L.[Orn].A.R.Q.D.I.L.S.[dR].[am]}$$$$V2.0), the “GH levels 10 min” value in experiment [1] is 269.9 ng/mL.
On the same count and under the same terms, then `CC/C=C/CC(=O)N[C@@H](Cc1ccc(O)cc1)C(=O)N[C@@H](C)C(=O)N[C@@H](CC(=O)O)C(=O)N[C@@H](C)C(=O)N[C@H](C(=O)N[C@@H](Cc1ccccc1)C(=O)N[C@H](C(=O)N[C@@H](CC(=O)O)C(=O)N[C@@H](CO)C(=O)N[C@@H](Cc1ccc(O)cc1)C(=O)N[C@@H](CCCNC(=N)N)C(=O)N[C@@H](CCCCN)C(=O)N[C@H](C(=O)N[C@@H](CC(C)C)C(=O)N[C@@H](C)C(=O)N[C@@H](CCC(N)=O)C(=O)N[C@@H](CC(C)C)C(=O)N[C@@H](CCCN)C(=O)N[C@@H](C)C(=O)N[C@@H](CCCNC(=N)N)C(=O)N[C@@H](CCC(N)=O)C(=O)N[C@@H](CC(=O)O)C(=O)N[C@H](C(=O)N[C@@H](CC(C)C)C(=O)N[C@@H](CO)C(=O)N[C@H](CCCNC(=N)N)C(N)=O)[C@@H](C)CC)C(C)C)[C@@H](C)O)[C@@H](C)CC` [SEQ ID NO: 24, Trans-3-hexenoyl-Y-A-D-A-I-F-T-D-S-Y-R-K-V-L-A-Q-L-O-A-R-Q-D-I-L-S-r-NH2] (HELM PEPTIDE1{[CC/C=C/CC(=O)[*:2]].Y.A.D.A.I.F.T.D.S.Y.R.K.V.L.A.Q.L.[Orn].A.R.Q.D.I.L.S.[dR].[am]}$$$$V2.0), with 332.6 ng/mL; and `CC[C@H](C)[C@H](NC(=O)[C@H](C)NC(=O)[C@H](CC(=O)O)NC(=O)[C@@H](C)NC(=O)[C@@H](N)Cc1ccc(O)cc1)C(=O)N[C@@H](Cc1ccccc1)C(=O)N[C@H](C(=O)N[C@@H](CC(=O)O)C(=O)N[C@@H](CO)C(=O)N[C@@H](Cc1ccc(O)cc1)C(=O)N[C@@H](CCCNC(=N)N)C(=O)N[C@@H](CCCCN)C(=O)N[C@H](C(=O)N[C@@H](CC(C)C)C(=O)N[C@@H](C)C(=O)N[C@@H](CCC(N)=O)C(=O)N[C@@H](CC(C)C)C(=O)N[C@@H](CCCCN)C(=O)N[C@@H](C)C(=O)N[C@@H](CCCNC(=N)N)C(=O)N[C@@H](CCC(N)=O)C(=O)N[C@@H](CC(=O)O)C(=O)N[C@@H](CC(C)C)C(=O)N[C@@H](CC(C)C)C(=O)N[C@@H](CO)C(=O)N[C@H](CCCNC(=N)N)C(N)=O)C(C)C)[C@@H](C)O` [SEQ ID NO: 25, Y-a-DAIFTDSYRKVLAQLKARQDLLS-r-NH2] (HELM PEPTIDE1{Y.[dA].D.A.I.F.T.D.S.Y.R.K.V.L.A.Q.L.K.A.R.Q.D.L.L.S.[dR].[am]}$$$$V2.0), with 144.1 ng/mL.
As to “H-YLDAIFTDSYRKVLAQLKARQDILARAARAAR-NH2 [SEQ ID NO: 35, YLDAIFTDSYRKVLAQLKARQDILARAARAAR-NH2]”, in experiment [2], the “Mean AUC (GH Area Under the curve, GH concentration over time)” value is reported as 9144 and the “Mean Cmax (ng/ml) of Growth Hormone secretion” value turned out to be 376.9 ng/mL.
